# Measured values: PubChem BioAssay AID1259407 (Chemical Carcinogenesis Research Information System (CCRIS), 2018)
# Active and inactive are the calls of the source. The rule behind the calls is not given here.
# System: CCRIS mutagenicity, Ames/micronucleus/aberration tests
# Experiment: CCRIS mutagenicity studies
# Excerpt: The CCRIS database contains chemical records with carcinogenicity, mutagenicity, tumor promotion, and tumor inhibition test results. It was developed by the National Cancer Institute (NCI). Data are derived from studies cited in primary journals, current awareness tools, NCI reports, and other sources. Test results have been reviewed by experts in carcinogenesis and mutagenesis.
# CCRIS provides historical information from the years 1985 - 2011. It is no longer updated.
# This is an archive assay for CCRIS mutagenicity studies.
structure (smiles),measurement,setting,value
Cc1ccccc1N,mutagenic call,"End Point: IN VIVO MICRONUCLEUS, Test System: HEPATOCYTES, Species: RAT, Strain/Sex: FISHER 344 OR SD/MALE, Route: ORAL OR IP",inactive; negative
same,mutagenic call,"End Point: IN VIVO MICRONUCLEUS, Test System: PERIPHERAL BLOOD RETICULOCYTES, Species: RAT, Strain/Sex: FISHER 344 OR SD/MALE, Route: ORAL OR IP",active; positive
same,mutagenic call,"Test System: AMES SALMONELLA TYPHIMURIUM, Strain/Indicator: TA97, Metabolic Activation: HAMSTER LIVER S-9, AROCLOR 1254 (10 OR 30%), Method: PREINCUBATION",inactive; negative
same,mutagenic call,"Test System: AMES SALMONELLA TYPHIMURIUM, Strain/Indicator: TA97, Metabolic Activation: NONE, Method: PREINCUBATION",inactive; negative
same,mutagenic call,"Test System: AMES SALMONELLA TYPHIMURIUM, Strain/Indicator: TA97, Metabolic Activation: NONE, Method: STANDARD PLATE",inactive; negative
same,mutagenic call,"Test System: AMES SALMONELLA TYPHIMURIUM, Strain/Indicator: TA97, Metabolic Activation: RAT LIVER S-9, AROCLOR 1254 (10 OR 30%), Method: PREINCUBATION",inactive; negative
same,mutagenic call,"Test System: AMES SALMONELLA TYPHIMURIUM, Strain/Indicator: TA97, Metabolic Activation: RAT, LIVER, S-9, PHENOBARBITAL AND 5,6-BENZOFLAVONE, Method: PREINCUBATION",inactive; negative
same,mutagenic call,"Test System: AMES SALMONELLA TYPHIMURIUM, Strain/Indicator: TA97, Metabolic Activation: S-9, Method: STANDARD PLATE",inactive; negative
same,mutagenic call,"Test System: AMES SALMONELLA TYPHIMURIUM, Strain/Indicator: TA98, Metabolic Activation: HAMSTER LIVER S-9, AROCLOR 1254 (10 OR 30%), Method: PREINCUBATION",inactive; negative
same,mutagenic call,"Test System: AMES SALMONELLA TYPHIMURIUM, Strain/Indicator: TA98, Metabolic Activation: HAMSTER, LIVER, S-9, AROCLOR 1254 (10%), Method: PREINCUBATION",inactive; negative
same,mutagenic call,"Test System: AMES SALMONELLA TYPHIMURIUM, Strain/Indicator: TA98, Metabolic Activation: HAMSTER, LIVER, S-9, AROCLOR 1254 (30%), Method: PREINCUBATION",inactive; negative
same,mutagenic call,"Test System: AMES SALMONELLA TYPHIMURIUM, Strain/Indicator: TA98, Metabolic Activation: HAMSTER, LIVER, S-9, SODIUM PHENOBARBITAL AND 5,6-BENZOFLAVONE, Method: PREINCUBATION",inactive; negative
same,mutagenic call,"Test System: AMES SALMONELLA TYPHIMURIUM, Strain/Indicator: TA98, Metabolic Activation: HAMSTER, LIVER, S-9, Method: PREINCUBATION (PRIVAL METHOD)",active; positive
same,mutagenic call,"Test System: AMES SALMONELLA TYPHIMURIUM, Strain/Indicator: TA98, Metabolic Activation: NONE, Method: PREINCUBATION",inactive; negative
same,mutagenic call,"Test System: AMES SALMONELLA TYPHIMURIUM, Strain/Indicator: TA98, Metabolic Activation: NONE, Method: STANDARD PLATE",inactive; negative
same,mutagenic call,"Test System: AMES SALMONELLA TYPHIMURIUM, Strain/Indicator: TA98, Metabolic Activation: RAT LIVER S-9, AROCLOR 1254 (10 OR 30%), Method: PREINCUBATION",inactive; negative
same,mutagenic call,"Test System: AMES SALMONELLA TYPHIMURIUM, Strain/Indicator: TA98, Metabolic Activation: RAT, LIVER, S-9, AROCLOR 1254 (10%), Method: PREINCUBATION",inactive; negative
same,mutagenic call,"Test System: AMES SALMONELLA TYPHIMURIUM, Strain/Indicator: TA98, Metabolic Activation: RAT, LIVER, S-9, AROCLOR 1254 (30%), Method: PREINCUBATION",inactive; negative
same,mutagenic call,"Test System: AMES SALMONELLA TYPHIMURIUM, Strain/Indicator: TA98, Metabolic Activation: RAT, LIVER, S-9, AROCLOR 1254 + 200 UG NORHARMAN, Method: STANDARD PLATE",active; positive
same,mutagenic call,"Test System: AMES SALMONELLA TYPHIMURIUM, Strain/Indicator: TA98, Metabolic Activation: RAT, LIVER, S-9, AROCLOR 1254, Method: PREINCUBATION",inactive; negative
same,mutagenic call,"Test System: AMES SALMONELLA TYPHIMURIUM, Strain/Indicator: TA98, Metabolic Activation: RAT, LIVER, S-9, PHENOBARBITAL AND 5,6-BENZOFLAVONE, Method: PREINCUBATION",inactive; negative
same,mutagenic call,"Test System: AMES SALMONELLA TYPHIMURIUM, Strain/Indicator: TA98, Metabolic Activation: S-9, Method: STANDARD PLATE",inactive; negative
same,mutagenic call,"Test System: AMES SALMONELLA TYPHIMURIUM, Strain/Indicator: TA100, Metabolic Activation: HAMSTER LIVER S-9, AROCLOR 1254 (10%), Method: PREINCUBATION",inactive; negative
same,mutagenic call,"Test System: AMES SALMONELLA TYPHIMURIUM, Strain/Indicator: TA100, Metabolic Activation: HAMSTER LIVER S-9, AROCLOR 1254 (30%), Method: PREINCUBATION",active; positive
same,mutagenic call,"Test System: AMES SALMONELLA TYPHIMURIUM, Strain/Indicator: TA100, Metabolic Activation: HAMSTER, LIVER, S-9, AROCLOR 1254 (10%), Method: PREINCUBATION",inactive; negative
same,mutagenic call,"Test System: AMES SALMONELLA TYPHIMURIUM, Strain/Indicator: TA100, Metabolic Activation: HAMSTER, LIVER, S-9, AROCLOR 1254 (30%), Method: PREINCUBATION",active; positive
same,mutagenic call,"Test System: AMES SALMONELLA TYPHIMURIUM, Strain/Indicator: TA100, Metabolic Activation: HAMSTER, LIVER, S-9, SODIUM PHENOBARBITAL AND 5,6-BENZOFLAVONE, Method: PREINCUBATION",inactive; negative
same,mutagenic call,"Test System: AMES SALMONELLA TYPHIMURIUM, Strain/Indicator: TA100, Metabolic Activation: NONE, Method: PREINCUBATION",inactive; negative
same,mutagenic call,"Test System: AMES SALMONELLA TYPHIMURIUM, Strain/Indicator: TA100, Metabolic Activation: NONE, Method: STANDARD PLATE",inactive; negative
same,mutagenic call,"Test System: AMES SALMONELLA TYPHIMURIUM, Strain/Indicator: TA100, Metabolic Activation: RAT LIVER S-9, AROCLOR 1254 (10 OR 30%), Method: PREINCUBATION",inactive; negative
same,mutagenic call,"Test System: AMES SALMONELLA TYPHIMURIUM, Strain/Indicator: TA100, Metabolic Activation: RAT, LIVER, S-9, AROCLOR 1254 (10%), Method: PREINCUBATION",inactive; negative
same,mutagenic call,"Test System: AMES SALMONELLA TYPHIMURIUM, Strain/Indicator: TA100, Metabolic Activation: RAT, LIVER, S-9, AROCLOR 1254 (30%), Method: PREINCUBATION",inactive; negative
same,mutagenic call,"Test System: AMES SALMONELLA TYPHIMURIUM, Strain/Indicator: TA100, Metabolic Activation: RAT, LIVER, S-9, AROCLOR 1254, Method: STANDARD PLATE",inactive; negative
same,mutagenic call,"Test System: AMES SALMONELLA TYPHIMURIUM, Strain/Indicator: TA100, Metabolic Activation: RAT, LIVER, S-9, PHENOBARBITAL AND 5,6-BENZOFLAVONE, Method: PREINCUBATION",inactive; negative
same,mutagenic call,"Test System: AMES SALMONELLA TYPHIMURIUM, Strain/Indicator: TA100, Metabolic Activation: S-9, Method: STANDARD PLATE",inactive; negative
same,mutagenic call,"Test System: AMES SALMONELLA TYPHIMURIUM, Strain/Indicator: TA102, Metabolic Activation: HAMSTER, LIVER, S-9, SODIUM PHENOBARBITAL AND 5,6-BENZOFLAVONE, Method: PREINCUBATION",inactive; negative
same,mutagenic call,"Test System: AMES SALMONELLA TYPHIMURIUM, Strain/Indicator: TA102, Metabolic Activation: NONE, Method: PREINCUBATION",inactive; negative
same,mutagenic call,"Test System: AMES SALMONELLA TYPHIMURIUM, Strain/Indicator: TA102, Metabolic Activation: NONE, Method: STANDARD PLATE",inactive; negative
same,mutagenic call,"Test System: AMES SALMONELLA TYPHIMURIUM, Strain/Indicator: TA102, Metabolic Activation: S-9, Method: STANDARD PLATE",inactive; negative
